Assay results reported in ChEMBL document CHEMBL1201862, “PubChem BioAssay data set” (2004).
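1) Cells in 96-well plates. 2) Compound, 48 h, 5 concentrations. 3) Linear interpolation between surrounding doses. 4) Unreached endpoint = highest concentration. GI50 = concentration required for 50% inhibition of growth.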 Calls of active or inactive are those of the source. No stated cut-off is given here; in the data, active = GI50 up to about 1.1 µM and inactive = higher.

Experiments:
Test in all cases: NCI tumour cell line growth inhibition, 48 h
DMS-114 = system: DMS-114
SN12C = system: SN12C
OVCAR-5 = system: OVCAR-5
SK-MEL-5 = system: SK-MEL-5
CAKI-1 = system: CAKI-1
Malme-3M = system: Malme-3M
HL-60 = system: HL-60
UACC-257 = system: UACC-257
OVCAR-4 = system: OVCAR-4
HCT-116 = system: HCT-116
COLO 205 = system: COLO 205
M19-MEL = system: M19-MEL
NCI-H522 = system: NCI-H522
SF-295 = system: SF-295
HCT-15 = system: HCT-15
DMS-273 = system: DMS-273
RXF 631 = system: RXF 631
UACC-62 = system: UACC-62
A498 = system: A498
CCRF-CEM = system: CCRF-CEM
ACHN = system: ACHN
OVCAR-3 = system: OVCAR-3
A549 = system: A549
HOP-62 = system: HOP-62
IGROV-1 = system: IGROV-1
SK-MEL-28 = system: SK-MEL-28
SR = system: SR
KM-20L2 = system: KM-20L2
KM12 = system: KM12
SNB-19 = system: SNB-19
SNB-78 = system: SNB-78
SF-539 = system: SF-539
LXFL 529 = system: LXFL 529
HCC 2998 = system: HCC 2998
EKVX = system: EKVX
HOP-18 = system: HOP-18
MOLT-4 = system: MOLT-4
RXF 393 = system: RXF 393
RPMI-8226 = system: RPMI-8226
U-251 = system: U-251
TK-10 = system: TK-10
SK-OV-3 = system: SK-OV-3
SW-620 = system: SW-620
LOX IMVI = system: LOX IMVI
SNB-75 = system: SNB-75
M14 = system: M14
OVCAR-8 = system: OVCAR-8
NCI-H460 = system: NCI-H460
NCI-H226 = system: NCI-H226
SF-268 = system: SF-268
UO-31 = system: UO-31
DLD-1 = system: DLD-1
HOP-92 = system: HOP-92
HT-29 = system: HT-29
786-0 = system: 786-0

For `COC(=O)C1C=CCC2CCCCC21N1CCCC1` (stereo not given), the GI50 (DMS-114) was 36.1 µM (inactive), the GI50 (SN12C) was 78.5 µM (inactive) and the GI50 (OVCAR-5) was > 100 µM (inactive). For the same compound, the GI50 (SK-MEL-5) was 84.3 µM (inactive), the GI50 (CAKI-1) was > 100 µM (inactive) and the GI50 (Malme-3M) was > 100 µM (inactive). For the same compound, the GI50 (HL-60) was 19.7 µM (inactive), the GI50 (UACC-257) was > 100 µM (inactive) and the GI50 (OVCAR-4) was > 100 µM (inactive). The GI50 (HCT-116) was 46.1 µM (inactive), the GI50 (COLO 205) was 40.9 µM (inactive) and the GI50 (M19-MEL) was 59.3 µM (inactive). For the same compound, the GI50 (NCI-H522) was 53.8 µM (inactive), the GI50 (SF-295) was > 100 µM (inactive) and the GI50 (HCT-15) was greater than 100 µM. For the same compound, the GI50 (DMS-273) was > 100 µM (inactive), the GI50 (RXF 631) was > 100 µM (inactive) and the GI50 (UACC-62) was > 100 µM (inactive). The GI50 (A498) was > 100 µM (inactive), the GI50 (CCRF-CEM) was 53.1 µM (inactive) and the GI50 (ACHN) was > 100 µM (inactive). The GI50 (OVCAR-3) was 49.4 µM (inactive), the GI50 (A549) was 71.8 µM (inactive) and the GI50 (HOP-62) was > 100 µM (inactive). The GI50 (IGROV-1) was > 100 µM (inactive), the GI50 (SK-MEL-28) was 98.9 µM (inactive) and the GI50 (SR) was 76.7 µM (inactive). For the same compound, the GI50 (KM-20L2) was 83.2 µM (inactive), the GI50 (KM12) was 53.6 µM (inactive) and the GI50 (SNB-19) was 82.2 µM (inactive). The GI50 (SNB-78) was > 100 µM (inactive), the GI50 (SF-539) was > 100 µM (inactive) and the GI50 (LXFL 529) was 81.5 µM (inactive). The GI50 (HCC 2998) was 69.2 µM (inactive), the GI50 (EKVX) was > 100 µM (inactive) and the GI50 (HOP-18) was > 100 µM (inactive). The GI50 (MOLT-4) was 64.4 µM (inactive), the GI50 (RXF 393) was > 100 µM (inactive) and the GI50 (RPMI-8226) was 42.7 µM (inactive). The GI50 (U-251) was 40.4 µM (inactive), the GI50 (TK-10) was > 100 µM (inactive) and the GI50 (SK-OV-3) was > 100 µM (inactive). The GI50 (SW-620) was 83.6 µM (inactive), the GI50 (LOX IMVI) was > 100 µM (inactive) and the GI50 (SNB-75) was 44 µM (inactive). The GI50 (M14) was > 100 µM (inactive), the GI50 (OVCAR-8) was 59.4 µM (inactive) and the GI50 (NCI-H460) was 55.2 µM (inactive). For the same compound, the GI50 (NCI-H226) was 87.7 µM (inactive), the GI50 (SF-268) was 63.5 µM (inactive) and the GI50 (UO-31) was > 100 µM (inactive). For the same compound, the GI50 (DLD-1) was > 100 µM (inactive), the GI50 (HOP-92) was 34 µM (inactive) and the GI50 (HT-29) was 48.1 µM (inactive). For the same compound, the GI50 (786-0) was > 100 µM (inactive).
